Measured values taken from patent US6921749B1, “Polypeptides derived from endostatin exhibiting antiangiogenic activity” (Universita' Degli Studi di Milano, priority 1999, dated 2005).
Where no end group is shown, it is not given here. The star is where a group is joined. tBu = CC(C)(C)*

Columns and labels:
[1] = tested on: coronary venular endothelial cells (CVEC); experiment: Proliferation studies (total cell number), postcapillary venule endothelial cells; format: cell-based, bovine; settings: 10 to 1000 ng/ml, 48 hr, FGF-2 and VEGF 20 ng/ml each
Text: The coronary venular endothelial cells (CVEC) were isolated and cultured as previously described (8).
Cell proliferation was quantified by total cell number as reported (12,13).
Cell proliferation was quantified by counting the total number of cells after 48 hr treatment. Endothelial cells isolated from postcapillary venules were used to test the effect on angiogenesis. […] The effect was more pronounced on FGF-2-induced growth. […] Similar effects were obtained on all the endothelial cell lines tested (FIG. 1E).
C-E: Effect of endostatin fragments on endothelial cell proliferation. Endothelial cell (C,D: CVEC; E, MAE) proliferation was stimulated with FGF-2 and VEGF (20 ng/ml each). Data are expressed as number of cells counted/well after 48 hr incubation with test substances. Numbers are means±SEM of 6 and 2 experiments run in triplicate for CVEC and ME, respectively.

mouse aorta rings = experiment: Vascular sprouting in vitro in three-dimensional fibrin gels; format: cell-based; settings: vascular rings in 3D fibrin gels, day 3
Procedure: Vascular sprouting from mouse aorta rings was assessed in three-dimensional fibrin gels preparations according to the method described by Brown et al (15), with minor modifications. Quantitative evaluation of newly formed structures was carried out at day 3. The area covered by vascular sprouts was quantified in microscopic units (0.21 mm^2).
The formation of capillary-like structures in vascular rings cultured in 3D fibrin gels was used to test angiogenesis in vitro. Fragment I and IV inhibited the spontaneous growth of capillaries and the one induced by FGF-2 and VEGF. As an example the effect of 100 ng/ml concentration of either fragment is shown (FIG. 3A).
FIG. 3: Effect of endostatin fragments on angiogenesis in vitro (A) and in vivo (B). A. In vitro vessel sprouting from rings of mouse aortas was induced by FGF-2 (10 ng/ml). Fragments I and IV were used at […]. Data are reported as mean area occupied by tubules-like structures after 3 days from stimulation. Numbers are means of one representative experiment out of two run in triplicate.

endothelial cells = experiment: In vitro inhibition test on endothelial cells proliferation and migration; format: cell-based
Text: These polypeptides have remarkable antiangiogenic activity in the in vitro inhibition test on endothelial cells proliferation and migration (16).

[2] = tested on: microvascular endothelial cells; settings: E. coli expressed protein; cited from earlier work

Substance	cell growth induced by FGF-2 and VEGF [1]	growth of capillaries induced by FGF-2 and VEGF (mouse aorta rings)	spontaneous growth of capillaries (mouse aorta rings)	potency compared with endostatin (endothelial cells)	FGF-2 and VEGF induced proliferation and migration [2]
Cys-Glu-Thr-Trp-Arg-Thr-Glu-Thr-Thr-Gly-Ala-Thr-Gly-Gln-Ala-Ser-Ser-Leu-Leu-Ser-Gly-Arg-Leu-Leu-Glu-Gln-Lys-Ala-Ala-Ser-Cys-His-Asn-Ser-Tyr-Ile-Val-Leu-Cys(tBu)-Ile-Glu-Asn-Ser-Phe-Met-Thr-Ser-Phe-Ser-Lys (CETWRTETTGATGQASSLLSGRLLEQKAASCHNSYIVLC(tBu)IENSFMTSFSK; cysteine pairing not given here) [Fragment IV]	most potent	inhibited	inhibited	–	–
His-Thr-His-Gln-Asp-Phe-Gln-Pro-Val-Leu-His-Leu-Val-Ala-Leu-Asn-Thr-Pro-Leu-Ser-Gly-Gly-Met-Arg-Gly-Ile-Arg-Gly-Ala-Asp-Phe-Gln-Cys(tBu)-Phe-Gln-Gln-Ala-Arg-Ala (HTHQDFQPVLHLVALNTPLSGGMRGIRGADFQC(tBu)FQQARA) [Fragment I]	–	inhibited	inhibited	equipotential to endostatin	–
endostatin	–	–	–	–	able to block
